Data reported in US9757408B2 (Hayashibara Co., Ltd., priority 2010, dated 2017).
Marks after values point to notes of the source that are not given here.

Experiments:
[1] = tested on: IFN-γ production of spleen cells; assay: IFN-γ production of spleen cells stimulated with anti-CD3 antibody, from gel-treated mice (Experiment 16); type: in vivo, NC/Nga mice
Method: On Friday of the 6th week of the induction (46th day after initiating the application), all the mice were sacrificed, followed by isolating their spleens and collecting spleen cells in usual manner. […] To each well 2 μg/mL of “Purified Mouse CD3ε Monoclonal Antibody”, a product name of an anti-CD3 antibody, commercialized by Cosmo Bio Co., Ltd., Tokyo, Japan, was added, and the cells were incubated at 37° C. for three days in a 5% v/v CO2 incubator, followed by assaying the levels of cytokines in each supernatant thereof.
The results are in Table 19 in parallel.

[2] = tested on: mice with colitis induced by dextran sulfate sodium; assay: Dextran sulfate sodium colitis mice: diarrhea/hematochezia scores, DAI, haptoglobin (Experiment 13); type: in vivo, C57BL/6 mice; settings: dextran sulfate sodium intake; for Content of haptoglobin: blood on 11th day
Method: Dextran sulfate sodium (commercialized by MP Biomedicals, CA, USA, molecular weight of 36,000 to 50,000) was dissolved in tap water, and all the mice of these five groups consisting of eight heads each were allowed to freely take the solution for five days (Experiment groups 2 to 5). […] The eight mice of the remaining one group were administered through a gastric tube with PBS once a day at a dose of 0.2 mL/head over 11 days from the day of initiating the administration of dextran sulfate sodium (Experiment group 2). The five mice of one group, which had not been administered with dextran sulfate sodium, were bred for 11 days on the normal feed while allowing them to take tap water freely (Experiment group 1).
The mice were weighed and their degree of diarrhea and hematochezia were macroscopically observed every day over 11 days from the day of initiating the intake of dextran sulfate sodium. The body weight reduction percentage (%) was determined by dividing the body weight of a mouse at 11th day after initiating the intake of dextran sulfate sodium by the body weight of the mouse at the day of initiating the intake, and multiplying the value by 100, and subtracting the resulting value from 100. The scores of diarrhea and hematochezia and the body weight reduction percentage (%) in each mouse were scored according to the criteria as shown in Table 13. For each group, the average of the total scores of diarrhea and hematochezia on days ranging from the day (intake day 0) of initiating the intake of dextran sulfate sodium to 11th day therefrom (intake day 10) are determined and shown in Table 14. The total scores of diarrhea, hematochezia, and body weight reduction percentage for each mouse at 11th day (intake day 10) after initiating the intake of dextran sulfate sodium are calculated for disease activity index (DAI) used as an index for colitis, averaged for each group, and shown in Table 14. On 11th day after initiating the intake of dextran sulfate sodium, each mouse was collected blood, followed by assaying haptoglobin or an acute phase protein, as an index for inflammatory, on an ELISA kit commercialized by Life Diagnostics USA, and averaging the data for each group. The results are in Table 14 in parallel. Since one mouse in Experiment group 2 administered with only dextran sulfate sodium was dead at 11th day after initiating the intake of dextran sulfate sodium, the results of Experiment group 2 at 11th day (intake day 10) after initiating the intake of dextran sulfate sodium represent the average of seven mice.

[3] = tested on: mice with concanavalin A (Con A) induced liver disorder; assay: Concanavalin A induced liver disorder mice: GPT, GOT, liver necrosis score (Experiment 12); type: in vivo, BALB/c mice; set-up: Liver function GPT / Liver function GOT: unit not given here; settings: Con A 15 mg/kg i.v.; for Liver function GOT / Liver function GPT: serum 20 hours after Con A; for Conditions of liver tissue, Necrosis (average score): grades mild (1), moderate (2), severe (3)
Method: “TYPE IV”, a Con A specimen commercialized by Sigma-Aldrich Corporation, St. Louis, Mo. USA, was dissolved in physiological saline and intravenously administered to all the five mice in each six groups at a dose of 15 mg/0.2 mL. […] The five mice in the remaining one group as a control were intravenously administered with 0.2 mL/head of physiological saline, simultaneously with Con A (Experiment group 1).
For the mice in each group, they were collected blood at 20 hours after administering Con A, followed by assaying the activity of GPT and GOT in their sera with “TRANSAMINASE CII-TEST WAKO”, a commercialized assay kit produced by Wako Pure Chemical Industries Ltd., Tokyo, Japan, for use as an index for liver disorder due to hepatitis. […] The tissue specimens were stained with hematoxylin-eosin staining, followed by calculating an average of scores for judgement on the conditions of necrosis of liver tissues by microscopic observation, for use as an index for liver disorder. The results are in Table 12 in parallel. The conditions of necrosis of liver tissues were evaluated based on a microscopic observation standard of three grades of “mild (1)”, “moderate (2)”, and “severe (3)” and scored before determining the average for each group.

[4] = tested on: tissue factor expression in HUVEC cells; assay: Expression of tissue factor in HUVEC cells, ELISA of cell lysate (Experiment 6-2); type: cell-based, human; settings: for Amount of expressed tissue factor: HUVEC, LPS 10 μg/mL
Method: Thereafter, a solution of LPS, IL-1β, and IFN-γ were respectively prepared to give respective concentrations of 10 μg/mL, 2 ng/mL, and 500 IU/mL, added to the cells in an amount of 50 μL/well, and incubated at 37° C. for 5.5 hours in a 5% v/v CO2 incubator. After the culture, the cells were washed twice with PBS, followed by adding PBS to the resulting cells in a volume of 50 μL/well. The multi-plates were subjected to a freezing at −80° C. and thawing process thrice, followed by adding 50 mM Tris buffer (pH 7.4) containing 100 mM NaCl and 0.2% Triton X-100 to the microplates in an amount of 50 μL/well, culturing the cells at 4° C. overnight to prepare a cell lysate. The content of tissue factor in the cell lysate was determined by “AssayMax Human Tissue Factor ELISA Kit”, a product name of ELISA commercialized by Assay Pro, USA.

In the case of `Nc1c2ncn([C@@H]3O[C@H](CO)[C@@H](O)[C@H]3O)c2nc[n+]1[O-]` [ANO, adenosine N1-oxide], the “production level of IFN-γ of spleen cells stimulated with the anti-CD3 antibody” value ([1]; compared to mice applied with gel prepared by adding refined water (Experiment group 1)) is reported as “significantly lower”, the “Content of IFN-γ” value ([1]; supernatant of spleen cells stimulated with anti-CD3 antibody, picryl chloride-sensitized mice applied with gel) is reported as 8.75* pg/mL and the Content of haptoglobin ([2]; 33 mg/kg orally once a day) is reported as 3.7 mg/mL. For the same molecule, the “Total scores of diarrhea and hematochezia, day 0” value ([2]; 33 mg/kg orally once a day, day 0 after initiating the intake) was 0, the “Total scores of diarrhea and hematochezia, day 1” value ([2]; 33 mg/kg orally once a day) was 0 and the “Total scores of diarrhea and hematochezia, day 2” value ([2]; 33 mg/kg orally once a day) was 0. The “Total scores of diarrhea and hematochezia, day 3” value ([2]; 33 mg/kg orally once a day) was 0, the “Total scores of diarrhea and hematochezia, day 4” value ([2]; 33 mg/kg orally once a day) was 0.3 and the “Total scores of diarrhea and hematochezia, day 5” value ([2]; 33 mg/kg orally once a day) was 0.3. The “Total scores of diarrhea and hematochezia, day 6” value ([2]; 33 mg/kg orally once a day) was 0.5, the “Total scores of diarrhea and hematochezia, day 7” value ([2]; 33 mg/kg orally once a day) was 0.6 and the “Total scores of diarrhea and hematochezia, day 8” value ([2]; 33 mg/kg orally once a day) was 0.9. The “Total scores of diarrhea and hematochezia, day 9” value ([2]; 33 mg/kg orally once a day) was 0.8, the “DAI (total scores of diarrhea, hematochezia, and body weight reduction percentage), day 10” value ([2]; 33 mg/kg orally once a day) was 3.8* and the “Total scores of diarrhea and hematochezia, day 10” value ([2]; 33 mg/kg orally once a day) was 0.7. The Content of haptoglobin ([2]; 100 mg/kg orally once a day) was 2.9* mg/mL, the “Total scores of diarrhea and hematochezia, day 0” value ([2]; 100 mg/kg orally once a day, day 0) was 0 and the “Total scores of diarrhea and hematochezia, day 1” value ([2]; 100 mg/kg orally once a day) was 0. For the same molecule, the “Total scores of diarrhea and hematochezia, day 2” value ([2]; 100 mg/kg orally once a day) was 0, the “Total scores of diarrhea and hematochezia, day 3” value ([2]; 100 mg/kg orally once a day) was 0.3 and the “Total scores of diarrhea and hematochezia, day 4” value ([2]; 100 mg/kg orally once a day) was 0.4. For the same molecule, the “Total scores of diarrhea and hematochezia, day 5” value ([2]; 100 mg/kg orally once a day) was 0.4, the “Total scores of diarrhea and hematochezia, day 6” value ([2]; 100 mg/kg orally once a day) was 0.5 and the “Total scores of diarrhea and hematochezia, day 7” value ([2]; 100 mg/kg orally once a day) was 0.6. For the same molecule, the “Total scores of diarrhea and hematochezia, day 8” value ([2]; 100 mg/kg orally once a day) was 0.6, the “Total scores of diarrhea and hematochezia, day 9” value ([2]; 100 mg/kg orally once a day) was 0.7 and the “DAI (total scores of diarrhea, hematochezia, and body weight reduction percentage), day 10” value ([2]; 100 mg/kg orally once a day) was 3.4**. The “Total scores of diarrhea and hematochezia, day 10” value ([2]; 100 mg/kg orally once a day) was 0.6, the “Liver function GOT” value ([3]; 45 mg/kg i.v. simultaneously) was 2941++ and the “Liver function GPT” value ([3]; 45 mg/kg i.v. simultaneously) was 1477*. For the same molecule, the “Conditions of liver tissue, Necrosis (average score)” value ([3]; 45 mg/kg i.v.) was 2.4, the “Liver function GOT” value ([3]; 75 mg/kg i.v. simultaneously) was 2654** and the “Liver function GPT” value ([3]; 75 mg/kg i.v. simultaneously) was 1229*. The “Liver function GOT” value ([3]; 135 mg/kg i.v. simultaneously) was 1343**, the “Liver function GPT” value ([3]; 135 mg/kg i.v. simultaneously) was 687** and the “Conditions of liver tissue, Necrosis (average score)” value ([3]; 135 mg/kg i.v.) was 2.0. For the same molecule, the “inhibitory strength on tissue factor expression, stronger than adenosine” value ([4]; HUVEC cells) was “at least 10 times”, the “concentration which significantly inhibited the expression of tissue factor” value ([4]; HUVEC cells, LPS, IL-1β, IFN-γ) was “at least 0.5 μM” and the “Amount of expressed tissue factor” value ([4]; IL-1β, IFN-γ, test substance 0.2 μM) was 27.6. The “Amount of expressed tissue factor” value ([4]; IL-1β, IFN-γ, test substance 0.5 μM) was 13.5**, the “Amount of expressed tissue factor” value ([4]; IL-1β, IFN-γ, test substance 1 μM) was 12.9** and the “Amount of expressed tissue factor” value ([4]; IL-1β, IFN-γ, test substance 2 μM) was 9.4**. For the same molecule, the “Amount of expressed tissue factor” value ([4]; IL-1β, IFN-γ, test substance 5 μM) was 0** and the “Amount of expressed tissue factor” value ([4]; IL-1β, IFN-γ, test substance 10 μM) was 0**.
